The values below come from patent EP0326326A1, “Cysteine derivatives” (SANTEN PHARMACEUTICAL CO., LTD., priority 1988, dated 1989).

Series [1] concerns haemolytic plaque-forming spleen cells. In words: Effect on immune response against sheep red blood cells of mouse (haemolytic plaque-forming spleen cell count). The class given is in vivo, female BALB/c mice. Particulars: Erythrocyte, ip, 96 h, mice immunized with 5 x 10⁸ sheep red blood cells i.p., compound administered continuously for 4 days, calculated from the cell count, read-out: 50% suppressive dose. As for the experimental part: According to the method of Iso ( Int. J. Immunotherapy, 1, 93 (1985)), 5 x 10⁸ sheep red blood cells were administered intraperitoneally to female BALB/c mice ( 3 to 5 mice a group ) and immunized.
After immunization, the test compound suspended in 1% methyl cellulose solution was administered continuously for 4 days.
Mice were killed and the number of haemolytic plaque-forming spleen cells were measured.
50% suppressive dose was calculated based on the cell count. For a comparison, the similar test with the known compound of the formula[IV] described in US Patent 4305958 was performed.

Series [2] concerns liver disorder caused by CCl₄. In words: Effect on the liver disorder caused by CCl₄ (serum GOT and GPT levels). The class given is in vivo, male Wistar rats. Particulars: 24 hours after CCl₄ 0.25ml/kg intraperitoneally, test compound 300mg/kg orally 30 minutes before, rat. As for the experimental part:
The rat liver disorder model cause by CCl₄ is generally used to examine the efficacy of a drug for liver diseases.
The test compound was suspended in tragacanth gum solution and administered orally to male Wistar rats ( 5rats a group) at a dose of 300mg/kg.
Thirty minutes later, CCl₄ a liver disorder inducer, was given intraperitoneally at a dose of 0.25ml/kg.
Serum GOT and GPT levels were measured 24 hours after the administration of CCl₄ . To a control, 0.5% tragacanth gum solution was given.

The next series relates to ddY mice. Put plainly: Acute toxicity. Particulars: mouse, in vivo, po, 2000 mg/kg. As for the experimental part: (§1) The compound No.2 was suspended in 0.5% methyl cellulose solution at 20% concentration. The solution was administered orally to ddY mice ( male, 5 weeks age, 6 mice a group ) at a dose of 2000mg/kg.
The next series is described as follows: Acute toxicity. The arrangement: species or system ddY mice. To be noted: mouse, in vivo; oral, ddY mice, male, single dose of 2000mg/kg; read-out: LD₅₀. As for the experimental part:
as §1

Molecules are shown by their SMILES.

Turning to `CC(C)(CS)C(=O)N[C@@H](CS)C(=O)O` [Compound No.2, N-(2,2-Dimethyl-3-mercaptopropionyl)-L-cysteine], the ED50 in series [1] is 19.1 mg/kg. In series [2], the GOT is recorded as 13605 and the GPT was found to be 6558. In the series on ddY mice, the Toxicity entry was “weak with a single case of death”. Further, the LD50 in “Acute toxicity” is greater than 2000 mg/kg.

As for `CC(C)(S)C(=O)NC(CS)C(=O)O` (stereo not drawn) [known compound, reference compound], the ED50 in series [1] is 90.6 mg/kg.
